The record followed here is patent US11578083B2, “Pyrimidinium compounds and their mixtures for combating animal pests” (BASF SE, priority 2017, dated 2023).

Format in all cases: in vivo
Assay [1] deals with Thrips (Dichromothrips corbetti). Briefly: B.4 Thrips floral-immersion test. The note with it: 72 h. Here is the method:
B.4 Thrips (Dichromothrips Corbetti):
Dichromothrips corbetti adults used for bioassay are obtained from a colony maintained continuously under laboratory conditions. For testing purposes, the test compound is diluted in a 1:1 mixture of acetone:water (vol:vol), plus 0.01% vol/vol Alkamuls® EL 620 surfactant.
Thrips potency of each compound is evaluated by using a floral-immersion technique. Plastic petri dishes are used as test arenas. All petals of individual, intact orchid flowers are dipped into treatment solution and allowed to dry. Treated flowers are placed into individual petri dishes along with about 20 adult thrips. The petri dishes v then covered with lids. All test arenas are held under continuous light and a temperature of about 28° C. for duration of the assay. After 3 days, the numbers of live thrips are counted on each flower, and along inner walls of each petri dish. The percent mortality is recorded 72 hours after treatment.

Assay [2] has as its system Chilo suppressalis. The assay is described as follows: B.3a Rice stem borer vial bioassay. Particulars: 72 h. How it is done: Field-collected rice straws were washed with tap water and cut for a certain of length. Straws were air dried before placing individually in vials (=replicate, 3×). About 125 μl test solution was sprayed per vial. Treated rice straws in vials were air dried under the laboratory hood. After air-drying, each straw was inoculated with 10 newly-emerged (0-day old) stem borer larvae. Vials were then covered. Set-up was kept in a holding room maintained at 27° C. and 65% RH for three days. At 3 days after inoculation, rice straws were manually dissected for larval mortality assessment. The data (Table C) show activity against two species of rice stem borers.

The test system of assay [3] is Chilo suppressalis. Briefly: B.3c Rice striped stem borer, drench application. Particulars: Chilo suppressalis neonates, Dose 10 mg, 14 DAT. From the text:
The test solution was poured onto the soil of each potted rice plant (=replicate) with five tillers each pot. After drench application, treated plants were transferred inside the screenhouse for three days prior to stemborer inoculation inside the laboratory. Three days after drench application, 5 to 6-day old egg masses of CHILSU were used for inoculation. All stemborer-infested potted rice plants were transferred inside the screenhouse 1 day after inoculation until the final assessment. […] Whole plant damage was assessed before cutting each hill at the basal portion for tiller dissection. Each dissected tiller was inspected looking for dead (if possible) and alive stemborer larvae.

Assay [4] deals with Rice brown plant hopper (Nilaparvata lugens). The assay is described as follows: B.2 Rice brown plant hopper, sprayed rice seedlings. Particulars: 72 h. Here is the method:
B.2 Rice Brown Plant Hopper (Nilaparvata lugens):
Rice seedlings are cleaned and washed 24 hours before spraying. The active compounds are formulated in 50:50 acetone:water (vol:vol) and 0.1% vol/vol surfactant (EL 620) is added. Potted rice seedlings are sprayed with 5 ml test solution, air dried, placed in cages and inoculated with 10 adults. Treated rice plants are kept at about 28-29° C. and relative humidity of about 50-60%. Percent mortality is recorded after 72 hours.

Assay [5] deals with Cowpea aphid (Aphis craccivora). Briefly: B.3 Cowpea aphid leaf disk test. Particulars: foliar, 120 h. Here is the method:
If not otherwise specified, the test solutions are prepared as follows:
The active compound is dissolved at the desired concentration in a mixture of 1:1 (vol:vol) distilled water: acetone. The test solution is prepared at the day of use.
B.3 Cowpea aphid (Aphis craccivora):
For evaluating control of Cowpea aphid through contact or systemic means the test unit consists of 24-well-microtiter plates containing broad bean leaf disks.
The compounds are formulated using a solution containing 75% v/v water and 25% v/v DMSO. Different concentrations of formulated compounds are sprayed onto the leaf disks at 2.5 μl, using a custom built micro atomizer, at two replications.
After application, the leaf disks are air-dried and 5-8 adult aphids placed on the leaf disks inside the microtiter plate wells. The aphids are then allowed to suck on the treated leaf disks and incubated at about 23±1° C. and about 50±5% relative humidity for 5 days. Aphid mortality and fecundity is then visually assessed.

For assay [6], the system named is Chilo suppressalis. The assay is described as follows: B.3b Rice striped stem borer, foliar spraying. How it is done: All three pots (=replicates) of four to five-week old potted rice per treatment were simultaneously sprayed with 12 mL test solution. After spray application, plants were air dried in the laboratory before inoculation. After air-drying, 5 to 6-day old egg masses of CHILSU were used for inoculation. All stem borer-infested potted rice plants were transferred inside the screenhouse 1 day after inoculation until the final assessment. […] Whole plant damage was assessed before cutting each hill at the basal portion for tiller dissection. Each dissected tiller was inspected looking for dead (if possible) and alive stemborer larvae.

The subject of assay [7] is Rice green leafhopper (Nephotettix virescens). Briefly: B.1 Rice green leafhopper, sprayed rice seedlings. Particulars: 72 h. Here is the method:
B.1 Rice Green Leafhopper (Nephotettix virescens):
Rice seedlings are cleaned and washed 24 hours before spraying. The active compounds are formulated in 50:50 acetone:water (vol:vol), and 0.1% vol/vol surfactant (EL 620) is added. Potted rice seedlings are sprayed with 5 ml test solution, air dried, placed in cages and inoculated with 10 adults. Treated rice plants are kept at about 28-29° C. and relative humidity of about 50-60%. Percent mortality is recorded after 72 hours.

Assay [8] relates to Greenhouse Whitefly (Trialeurodes vaporariorum). The assay is described as follows: Greenhouse Whitefly, egg plant leaf disk (table 5, mixtures). The note with it: solo application Oxazosulfyl, use rate 50 ppm. Here is the method: For evaluating control of Greenhouse Whitefly (Trialeurodes vaporariorum) the test unit consisted of 96-well-microtiter plates containing a leaf disk of egg plant leaf disk with white fly eggs. The compounds or mixtures were formulated using a solution containing 75% water and 25% DMSO. Concentrations of formulated compounds or mixtures were sprayed onto the […] at 2.5 μl, using a custom built micro atomizer, at two replications.
(§1) For experimental mixtures in these tests identical volumes of both mixing partners at the desired concentrations respectively, were mixed together.
After application, microtiter plates were incubated at 23±1° C., 65±5% RH for 6 days. Mortality of hatched crawlers was then visually assessed.

Assay [9] deals with yellow fever mosquito (Aedes aegypti). The note with it: in vivo. How it is done:
For evaluating control of yellow fever mosquito (Aedes aegypti) the test unit consisted of 96-well-microtiter plates containing 200 μl of tap water per well and 5-15 freshly hatched A. aegypti larvae.
The compounds or mixtures were formulated using a solution containing 75% water and 25% DMSO. Different concentrations of formulated compounds or mixtures were sprayed onto the insect diet at 2.5 μl, using a custom built micro atomizer, at two replications.
as §1
After application, microtiter plates were incubated at 28±1° C., 80±5% RH for 2 days. Larval mortality was then visually assessed.

The test system of assay [10] is brown planthopper (Nilaparvata lugens). The assay is described as follows: Test 6 brown planthopper, foliar spray (mixtures). The note with it: Table 6.2, after 7 days, solo application Spinetoram, use rate 70 ppm. Here is the method: For evaluating control of brown planthopper (Nilaparvata lugens) by foliar spray method. Clean potted rice seedlings with upper leaf portion cut are properly labeled. Placed three potted rice plants per treatment concentration/combination on top of the rotating disc (270 mm) and sprayed with the 12 mL spray solution. Treated plants are allowed to air-dry in the laboratory for about an hour. After air-drying, covered each treated rice plant. Each treated plant was infested with brown planthoppers using a suction vacuum. Plants are maintained at 27° C.±1° C., 50±5% RH and 24 hours light conditions in a holding room. Percent mortality is recorded 7 days after infestation by counting both the dead and alive brown planthoppers on the plants and on the water.

Assay [11] relates to boll weevil (Anthonomus grandis). The assay is described as follows: Test 3 boll weevil, insect diet with eggs (mixtures). The note with it: Table 3.2, solo application Spinetoram, use rate 4 ppm. How it is done: For evaluating control of boll weevil (Anthonomus grandis) the test unit consisted of 24-well-microtiter plates containing an insect diet and 20-30 A. grandis eggs.
The compounds or mixtures were formulated using a solution containing 75% water and 25% DMSO. Concentrations of formulated compounds or mixtures were sprayed onto the insect diet at 20 μl, using a custom built micro atomizer, at two replications.
as §1
After application, microtiter plates were incubated at 23±1° C., 50±5% RH for 5 days. Egg and larval mortality was then visually assessed.

The test system of assay [12] is vetch aphid (Megoura viciae). Briefly: Test 1 vetch aphid, leaf disks (mixtures). The note with it: Table 1, solo application Spinetoram, use rate 2 ppm. From the text:
Synergism can be described as an interaction where the combined effect of two or more compounds is greater than the sum of the individual effects of each of the compounds. The presence of a synergistic effect in terms of percent control, between two mixing partners (X and Y) can be calculated using the Colby equation (Colby, S. R., 1967, Calculating Synergistic and Antagonistic Responses in Herbicide Combinations, Weeds, 15, 20-22):
When the observed combined control effect is greater than the expected combined control effect (E), then the combined effect is synergistic.
The analysis of synergism or antagonism between the mixtures or compositions was determined using Colby's equation.
For evaluating control of vetch aphid (Megoura viciae) through contact or systemic means the test unit consisted of 24-well-microtiter plates containing broad bean leaf disks.
The compounds or mixtures were formulated using a solution containing 75% water and 25% DMSO. Concentrations of formulated compounds or mixtures were sprayed onto the leaf disks at 2.5 μl, using a custom built micro atomizer, at two replications. […]
After application, the leaf disks were air-dried and 5-8 adult aphids placed on the leaf disks inside the microtiter plate wells. […] Aphid mortality and fecundity was then visually assessed.

Consider `C[n+]1c2n(c([O-])c(-c3ccccc3)c1=O)C(c1cnc(Cl)s1)CS2` (racemic) [Compound I-1, 3-(2-chlorothiazol-5-yl)-8-methyl-7-oxo-6-phenyl-2,3-dihydrothiazolo[3,2-a]pyrimidin-8-ium-5-olate], for which the mortality at 10 ppm in assay [1] was 73%. The compound also registered a mortality at 300 ppm with Chilo suppressalis [2] of 80%. In addition, the “Feeding damage (%)” value is 15% in the assay on Chilo suppressalis [3] and 15% in the assay with Chilo suppressalis [6] (Chilo suppressalis neonates, foliar spraying, Dose 200 ppm, 14 DAT). In addition, the mortality at 1 ppm in [4] came out at 54%; in assay [5] it was 80%; in assay [7], 50%. This compound gave a mortality at 200 ppm in the assay on Chilo suppressalis [6] (Chilo suppressalis, foliar, 336 h) of 96%.

Regarding `CCS(=O)(=O)c1cccnc1-c1nc2cc(S(=O)(=O)C(F)(F)F)ccc2o1` [Oxazosulfyl, 2-(3-ethylsulfonyl-2-pyridyl)-5-(trifluoromethylsulfonyl)-1,3-benzoxazole, reference compound], the Average control % in assay [8] was found to be 50%.

Compound `Cc1cccc2sc3nncn3c12` [Tricyclazol, tricyclazole, reference compound] displayed an Average control % in assay [9] of 50%.

With spinetoram [reference compound], the Average control % is 62% in assay [10], 0% in assay [11] and 50% in assay [12].

A word on the mortality: it is the percentage killed. A higher mortality goes with a strong lethal effect.
